Data: ChEMBL document CHEMBL1132392, “Novel derivatives of 3-(dipropylamino)chroman. Interactions with 5-HT1A and D2A receptors” (Bioorg Med Chem Lett, 1999)
pKi: −log10 of the molar value. The source made the active and inactive calls. The calls are words filed in the database; no cut-off is given here.

Assays:
D(2) dopamine receptor [1] = target: T1, D(2) dopamine receptor (Homo sapiens, UniProt P14416); assay: In vitro ability to inhibit [3H]raclopride binding to cloned human D2A receptors expressed in mouse fibroblast (LtK-) cells; format: cell-based
[2] = target: T2, 5-hydroxytryptamine receptor 1A (Rattus norvegicus, UniProt P19327); assay: In vitro ability to inhibit [3H]-8-OH-DPAT binding to 5-hydroxytryptamine 1A receptor in rat cortical membranes; format: cell membranes
T2 sequence (P19327 whole entry): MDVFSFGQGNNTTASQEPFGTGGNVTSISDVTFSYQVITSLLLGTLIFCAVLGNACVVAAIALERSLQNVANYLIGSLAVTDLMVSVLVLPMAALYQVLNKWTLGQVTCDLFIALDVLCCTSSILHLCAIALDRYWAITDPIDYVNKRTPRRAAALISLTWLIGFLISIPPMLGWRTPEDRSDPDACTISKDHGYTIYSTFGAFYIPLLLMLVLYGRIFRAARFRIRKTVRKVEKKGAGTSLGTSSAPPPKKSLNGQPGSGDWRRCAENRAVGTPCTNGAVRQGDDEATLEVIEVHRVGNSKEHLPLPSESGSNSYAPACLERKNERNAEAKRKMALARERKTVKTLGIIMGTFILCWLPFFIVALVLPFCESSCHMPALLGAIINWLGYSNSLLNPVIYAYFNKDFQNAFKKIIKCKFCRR

D(2) dopamine receptor [3] = target: T1, D(2) dopamine receptor; assay: Agonist activity against human D2A receptor; Active; format: functional

T1 sequence (P14416 whole entry): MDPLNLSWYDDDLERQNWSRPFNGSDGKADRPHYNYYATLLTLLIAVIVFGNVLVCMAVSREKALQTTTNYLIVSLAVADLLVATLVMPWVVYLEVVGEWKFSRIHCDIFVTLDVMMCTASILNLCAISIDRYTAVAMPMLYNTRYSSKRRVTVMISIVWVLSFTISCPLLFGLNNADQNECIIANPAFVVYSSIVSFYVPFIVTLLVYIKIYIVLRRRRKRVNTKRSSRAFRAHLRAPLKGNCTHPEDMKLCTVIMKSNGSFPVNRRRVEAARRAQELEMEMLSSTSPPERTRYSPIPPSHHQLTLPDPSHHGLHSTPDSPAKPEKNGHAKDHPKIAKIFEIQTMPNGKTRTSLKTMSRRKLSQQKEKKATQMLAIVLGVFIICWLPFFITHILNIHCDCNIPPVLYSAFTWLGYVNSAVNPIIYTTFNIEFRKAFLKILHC

pKi (D(2) dopamine receptor [1])	pKi [2]	Compound	Activity (D(2) dopamine receptor [3])
6.40	8.96	CCCN(CCC)C1COc2c(cccc2-c2ccsc2)C1 (stereo not given)	
< 6.00	7.33	CCCN(CCC)C1COc2c(cccc2C(=O)c2ccc(C(F)(F)F)cc2)C1 (stereo not given)	
		CCCN(CCC)C1COc2c(Br)ccc(OC)c2C1 (stereo not given)	Active
		CCCN(CCC)C1COc2c(SC)ccc(OC)c2C1 (stereo not given)	Active
< 6.00	8.14	CCCN(CCC)C1COc2c(cccc2C(=O)c2ccsc2)C1 (stereo not given)	
< 6.00	8.40	CCCN(CCC)C1COc2c(cccc2C(=O)c2ccccc2)C1 (stereo not given)	
< 6.00	8.96	CCCN(CCC)C1COc2c(cccc2-c2ccccc2OC)C1 (stereo not given)	
7.32	8.24	CCCN(CCC)C1COc2c(cccc2-c2ccoc2)C1 (stereo not given)	
< 6.00	7.96	CCCN(CCC)C1COc2c(cccc2C(=O)c2ccc(C(C)=O)cc2)C1 (stereo not given)	
< 6.00	7.22	CCCN(CCC)C1COc2c(cccc2C(=O)c2ccccc2OC)C1 (stereo not given)	
	8.96	CCCN(CCC)C1COc2c(cccc2-c2ccccc2)C1 (stereo not given)	
	8.89	CCCN(CCC)C1COc2c(cccc2-c2ccc(OC)cc2)C1 (stereo not given)	
6.12	7.20	CCCN(CCC)C1COc2c(cccc2-c2ccc(C(F)(F)F)cc2)C1 (stereo not given)	
5.87	7.79	CCCN(CCC)C1COc2c(cccc2C(=O)c2ccoc2)C1 (stereo not given)	
< 6.00	7.98	CCCN(CCC)C1COc2c(cccc2C(=O)c2ccc(OC)cc2)C1 (stereo not given)	

Compound	pKi (D(2) dopamine receptor [1])	pKi [2]	Activity (D(2) dopamine receptor [3])
CCCN(CCC)C1COc2c(O)cccc2C1 (stereo not given)	6.89	< 5.52	
CCCN(CCC)C1COc2cccc(O)c2C1 (stereo not given)	< 5.52	7.08	
